Data taken from US20230416243A1, “Process for Preparing Heterocyclic Methanone Compounds and AZA-Bicyclo Intermediates Thereof” (ACTINOGEN MEDICAL LIMITED, priority 2020, published 2023).

Test: Solubility test in water
Type: physicochemical
Settings: water at pH 4
Protocol: A saponification of A4 in aqueous conditions was conducted.

Solubility in water: soluble
Structure (SMILES): O=C(O)c1csc(-c2cn[nH]c2)c1 [Compound A5]
